Source: patent US20130253048A1, “Pharmaceutical Composition for Promoting Osteogenesis Containing Axial-equatorial Aryl-oriented Furofuran-type Lignan, and Pharmaceutical Preparation, Functional Food Product, and Health Food Product Comprising Composition” (ERINA CO., INC., priority 2010, published 2013)

System: metatarsals of mouse fetus
Test: Organ culture of mouse fetus metatarsals, calcein staining
Type: cell-based
Settings: 0.3 μM, 7 days organ culture, versus 0.3% DMSO negative control
Procedure: Eagle's minimum essential mediums (MEM, Life Technologies Japan Corporation (Invitrogen)) was used to prepare the organ culture medium by adding 1% of penicillin/streptomycin (Life Technologies Japan Corporation (GIBCO)), 0.25% of fetal bovine serum (Sigma-Aldrich Co. LLC.), 50 μg/ml of ascorbic acid (Wako Pure Chemical Industries, Ltd.), 1 mM of β-glycerophosphoric acid (Sigma-Aldrich Co. LLC.), and 1 μg/ml of calcein (Sigma-Aldrich Co. LLC.). As a test substance, 0.3 μM of fargesin, or as a control, 0.3% of DMSO (final cone., Wako Pure Chemical Industries, Ltd.) was added to the organ culture medium. Fargesin was used the same solution prepared in Example 1 containing 0.3% DMSO as the final concentration.
On 15 of pregnancy, mouse fetuses were took from pregnant female ICR mice (Japan SLC, Inc.) by Caesarean operation (E15.5) from the 15th days of a pregnant ICR female mouse by Caesarean section. Left and right metatarsals of the fetus were excised to be placed into the organ culture medium. The organ culture was performed under the conditions of 5% CO2 at 37 degree centigrade for 7 days to observe the effect on long axis direction.
The long axis of the bone grows depending on that of epiphyseal cartilage existing between an epiphysis and a shaft. […] Then, calcification was occurred from the occification center (ossification). […]

SMILES: COc1ccc([C@@H]2OC[C@H]3[C@@H]2CO[C@@H]3c2ccc3c(c2)OCO3)cc1OC [fargesin, Fargesin]
- extension of the metatarsal in long axis direction (calcified area, calcein fluorescence): extended longer vertically
